The values that follow come from the NIST ThermoML archive (doi:10.1016/j.jct.2017.11.002).

Numbers after ± are expanded uncertainties.

For series [1] the following is noted: Crystal, Calculated from knudsen effusion weight loss.
Series [2] is described as follows: molar enthalpy of vaporization or sublimation. The following applies: 298.15 K; Crystal; Static calorimetry.

As a reminder, the vapor or sublimation pressure is the pressure of vapour in equilibrium with the condensed phase. With `Cn1c2ccccc2c(=O)c2ccccc21` [N-methylacridone], the “vapor or sublimation pressure” value in series [1] (394.16 K) is on record as 0.0001465 ± 6e-05 kPa; in series [1] (396.13 K), 0.0001788 ± 6e-05 kPa; in series [1] (398.11 K) it was 0.0002123 ± 6.1e-05 kPa; in series [1] (400.15 K), 0.0002508 ± 6.1e-05 kPa; in series [1] (402.1 K), 0.0003035 ± 6.1e-05 kPa; in series [1] (404.1 K), 0.0003591 ± 6.1e-05 kPa. Besides, the “vapor or sublimation pressure” value in series [1] (406.15 K) is given as 0.0004322 ± 6.2e-05 kPa; in series [1] (408.13 K), 0.000516 ± 6.3e-05 kPa; in series [1] (410.11 K), 0.0005963 ± 6.4e-05 kPa; in series [1] (412.16 K), 0.0007321 ± 6.5e-05 kPa; in series [1] (414.11 K) it was 0.0008616 ± 6.7e-05 kPa; in series [1] (416.12 K), 0.00101 ± 9.3e-05 kPa. Also, in series [2], the molar enthalpy came to 124 ± 2.9 kJ/mol.

Take `O=c1c2ccccc2[nH]c2ccccc12` [9(10H)-acridinone]: the molar enthalpy in series [2] turned out to be 133 ± 4.2 kJ/mol.
